Test results taken from patent US5595763A (priority 1995, dated 1997).

Experiments:
[1] = test system: rat treated neonatally with low doses of streptozocin; conditions: in vivo
diabetic rats = conditions: treated diabetic rats, experiments run in parallel

## [Na+].[Na+].[O]=[W](=[O])([O-])[O-] [sodium tungstate]
[1]
  survival: all animals survived
Diabetic rats
  mortality: about 10%
